Assay results from patent publication US20130281397A1, “TREATMENT OF DISEASES BY EPIGENETIC REGULATION” (RVX Therapeutics Inc., priority 2012, published 2013).

How the values were obtained:
Brd4 bromodomain 1 = target: T1, Brd4 bromodomain 1 (Homo sapiens, UniProt O60885); assay: Inhibition of binding of tetra-acetylated histone H4 and Brd4 bromodomain 1 by TR-FRET; details: His-tagged bromodomain 200 nM, biotinylated tetra-acetylated histone H4 peptide 25-50 nM, 2 hours at room temperature
T1 construct: made in house; host or cells: E. coli BL21(DE3)
Protocol: Proteins were cloned and overexpressed with a N-terminal 6×His tag, then purified by nickel affinity followed by size exclusion chromatography. Briefly, E. coli BL21(DE3) cells were transformed with a recombinant expression vector encoding N-terminally […] tagged bromodomains from Brd2, Brd3, or Brd4. Cell cultures were incubated at 37° C. with shaking to the appropriate density and induced overnight with IPTG. The supernatant of lysed cells was loaded onto Ni-IDA column for purification. Eluted protein was pooled, concentrated and further purified by size exclusion chromatography. Fractions representing monomeric protein were pooled, concentrated, aliquoted, and frozen at −80° C. for use in subsequent experiments.
For inhibition assays, serially diluted test compound was added to these reactions in a 0.2% final concentration of DMSO. Final buffer concentrations were 30 mM HEPES pH 7.4, 30 mM NaCl, 0.3 mM CHAPS, 20 mM phosphate pH 7.0, 320 mM KF, 0.08% BSA). […] The binding inhibitory activity was shown by a decrease in 665 nm fluorescence relative to 620 nm. IC50 values were determined from a dose response curve.

Row | FRET activity (<50 uM) (Brd4 bromodomain 1) | melting point | Compound
1 | Active | 239 to 241 °C | O=c1[nH]c(-c2ccc(O)cc2)cc2ccccc12 [Example 1, 3-(4-Hydroxyphenyl)-2H-isoquinolin-1-one]
2 | Active | 245 to 247 °C | COc1cc(OC)c2c(=O)[nH]c(-c3ccc(O)cc3)cc2c1 [Example 3, 3-(4-hydroxyphenyl)-6,8-dimethoxyisoquinolin-1(2H)-one]
3 | Active | 252 to 254 °C | COc1cc(OC)c2c(=O)[nH]c(-c3cc(C)c(OCC(C)(C)O)c(C)c3)cc2c1 [Example 11, 3-(4-(2-hydroxy-2-methylpropoxy)-3,5-dimethylphenyl)-6,8-dimethoxyisoquinolin-1(2H)-one]
4 | Active | 246.6 to 247.4 °C | COc1cc2c(c(OC)c1)S(=O)(=O)NC(c1cc(C)c(O)c(C)c1)=C2 [Example 12, 6,8-dimethoxy-3-(4-hydroxy-3,5-dimethylphenyl)-2H-1,2-benzothiazine-1,1-dioxide]
5 | Inactive | 229.7 to 230.5 °C | COc1cc(OC)c2c(=O)[nH]c(-c3cc(C(C)(C)C)c(O)c(C(C)(C)C)c3)nc2c1 [Example 23, 2-(3,5-di-tert-butyl-4-hydroxyphenyl)-5,7-dimethoxyquinazolin-4(3H)-one]
6 | Inactive | 270 to 272 °C | COc1cc(OC)cc(-c2nc3cc(OC)cc(OC)c3c(=O)[nH]2)c1 [Example 24, 2-(3,5-dimethoxyphenyl)-5,7-dimethoxyquinazolin-4(3H)-one]
7 | Inactive | 276 to 277 °C | COc1ccc(-c2nc3cc(OC)cc(OC)c3c(=O)[nH]2)cc1 [Example 25, 5,7-dimethoxy-2-(4-methoxyphenyl)quinazolin-4(3H)-one]
8 | Active | 294 to 296 °C | COc1cc(OC)c2c(=O)[nH]c(-c3ccc(O)c(OC)c3)nc2c1 [Example 26, 2-(4-hydroxy-3-methoxyphenyl)-5,7-dimethoxyquinazolin-4(3H)-one]
9 | Active | 279 to 281 °C | COc1cc(OC)c2c(=O)[nH]c(-c3ccc(O)c(Cl)c3)nc2c1 [Example 27, 2-(3-chloro-4-hydroxyphenyl)-5,7-dimethoxyquinazolin-4(3H)-one]
10 | Inactive | 260 to 261 °C | Cc1cc(-c2nc3ccccc3c(=O)[nH]2)cc(C)c1OCCO [Example 30, 2-(4-(2-hydroxyethoxy)-3,5-dimethylphenyl)quinazolin-4(3H)-one]
11 | Inactive | 267 to 268 °C (dec.) | O=c1[nH]c(-c2ccc3c(c2)OCCO3)nc2ccccc12 [Example 31, 2-(2,3-dihydrobenzo[b][1,4]dioxin-6-yl)quinazolin-4(3H)-one]
12 | Inactive | 269 to 271 °C | COc1cc(OC)c2c(=O)[nH]c(-c3ccc(N(C)C)c4ccccc34)nc2c1 [Example 32, 2-(4-(dimethylamino)naphthalen-1-yl)-5,7-dimethoxyquinazolin-4(3H)-one]
13 | Active | 309 to 311 °C | COc1cc(OC)c2c(=O)[nH]c(-c3ccc(OCC(N)=O)cc3)nc2c1 [Example 33, 2-(4-(5,7-dimethoxy-4-oxo-3,4-dihydroquinazolin-2-yl)phenoxy)acetamide]
14 | Inactive | 285 to 287 °C | O=C(O)COc1ccc(-c2nc3ccccc3c(=O)[nH]2)cc1 [Example 34, 2-(4-(4-oxo-3,4-dihydroquinazolin-2-yl)phenoxy)acetic acid]
15 | Inactive | 224 to 226 °C | CN(C)c1ccc(-c2nc3ccccc3c(=O)[nH]2)c2ccccc12 [Example 35, 2-(4-(dimethylamino)naphthalen-1-yl)quinazolin-4(3H)-one]
16 | Inactive | 277.5 to 278.5 °C | NC(=O)COc1ccc(-c2nc3ccccc3c(=O)[nH]2)cc1 [Example 36, 2-(4-(4-oxo-3,4-dihydroquinazolin-2-yl)phenoxy)acetamide]
17 | Active | 307.5 to 309.6 °C | COc1cc(OC)c2c(=O)[nH]c(-c3ccc4c(c3)OCCO4)nc2c1 [Example 37, 2-(2,3-dihydrobenzo[b][1,4]dioxin-6-yl)-5,7-dimethoxyquinazolin-4(3H)-one]

Row | FRET activity (<50 uM) (Brd4 bromodomain 1) | melting point | Compound
18 | Inactive | 228 to 230 °C | O=c1[nH]c(-c2ccc(N(CCO)CCO)cc2)nc2ccccc12 [Example 40, 2-(4-(bis(2-hydroxyethyl)amino)phenyl)quinazolin-4(3H)-one]
19 | Active | 249 to 251 °C | COc1cc(OC)c2c(=O)[nH]c(-c3ccc(N(CCO)CCO)cc3)nc2c1 [Example 41, 2-(4-(bis(2-hydroxyethyl)amino)phenyl)-5,7-dimethoxyquinazolin-4(3H)-one]
20 | Inactive | 316.4 to 318.2 °C | COc1cc2nc(-c3ccc4c(c3)OCCO4)[nH]c(=O)c2cc1OC [Example 43, 2-(2,3-dihydrobenzo[b][1,4]dioxin-6-yl)-6,7-dimethoxyquinazolin-4(3H)-one]
21 | Active | 212.5 to 212.9 °C | COc1cc(OC)c2c(=O)[nH]c(-c3cc(C)c(OCCN4CCOCC4)c(C)c3)cc2n1 [Example 45, 7-(3,5-dimethyl-4-(2-morpholinoethoxy)phenyl)-2,4-dimethoxy-1,6-naphthyridin-5(6H)-one]
22 | Active | > 300 °C | COc1cc2nc(-c3cc(C)c(O)c(C)c3)[nH]c(=O)c2cc1OC [Example 47, 2-(4-hydroxy-3,5-dimethylphenyl)-6,7-dimethoxyquinazolin-4(3H)-one]
23 | Active | 250.6 to 251.1 °C | COc1cc(OC)c2c(=O)[nH]c(-c3ccc(CCC(=O)O)cc3)nc2c1 [Example 48, 3-(4-(5,7-dimethoxy-4-oxo-3,4-dihydroquinazolin-2-yl)phenyl)propanoic acid]
24 | Inactive | 336.5 °C (dec.) | CC(=O)Nc1ccc2nc(-c3cc(C)c(O)c(C)c3)[nH]c(=O)c2c1 [Example 49, N-(2-(4-hydroxy-3,5-dimethylphenyl)-4-oxo-3,4-dihydroquinazolin-6-yl)acetamide]
25 | Inactive | 354 to 356 °C | COc1cc2nc(-c3cc(C)c(OCC(N)=O)c(C)c3)[nH]c(=O)c2cc1OC [Example 50, 2-(4-(6,7-dimethoxy-4-oxo-3,4-dihydroquinazolin-2-yl)-2,6-dimethylphenoxy)acetamide]
26 | Inactive | 287 to 288 °C (dec.) | COc1cc(OC)c2c(=O)[nH]c(-c3ccc(OCCO)c(Cl)c3)nc2c1 [Example 51, 2-(3-chloro-4-(2-hydroxyethoxy)phenyl)-5,7-dimethoxyquinazolin-4(3H)-one]
27 | Inactive | > 300 °C | COc1cc2nc(-c3cc(C)c(OCCO)c(C)c3)[nH]c(=O)c2cc1OC [Example 53, 2-(4-(2-hydroxyethoxy)-3,5-dimethylphenyl)-6,7-dimethoxyquinazolin-4(3H)-one]
28 | Active | 190 to 192 °C | COc1cc(OC)c2c(=O)[nH]c(-c3cc(C)c(NC(=O)CO)c(C)c3)nc2c1 [Example 55, N-(4-(5,7-dimethoxy-4-oxo-3,4-dihydroquinazolin-2-yl)-2,6-dimethylphenyl)-2-hydroxyacetamide]
29 |  | 224.9 to 225.4 °C | COc1cc(OC)c2c(=O)[nH]c(-c3cc(C)c(OCCO)c(C)c3)cc2n1 [Example 56, 7-(4-(2-hydroxyethoxy)-3,5-dimethylphenyl)-2,4-dimethoxy-1,6-naphthyridin-5(6H)-one]
30 | Active | 262 to 263 °C (dec.) | COc1cc(OC)c2c(=O)[nH]c(-c3cc(C)c(OC)c(C)c3)cc2n1 [Example 58, 2,4-dimethoxy-7-(4-methoxy-3,5-dimethylphenyl)-1,6-naphthyridin-5(6H)-one]
31 | Inactive | 318 to 319 °C | COc1cc(OC)c2c(=O)[nH]c(-c3ccc(NC(=O)CO)cc3)nc2c1 [Example 60, N-(4-(5,7-dimethoxy-4-oxo-3,4-dihydroquinazolin-2-yl)phenyl)-2-hydroxyacetamide]
32 | Active | 297 to 299 °C | COc1cc(OC)c2c(=O)[nH]c(-c3cc(C)c(O)c(C)c3)nc2n1 [Example 63, 2-(4-hydroxy-3,5-dimethylphenyl)-5,7-dimethoxypyrido[2,3-d]pyrimidin-4(3H)-one]
33 | Active | 282.7 to 284.5 °C | COc1cc(OC)c2c(=O)[nH]c(-c3ccc(OC)c(CN4CCOCC4)c3)nc2c1 [Example 64, 5,7-dimethoxy-2-(4-methoxy-3-(morpholinomethyl)phenyl)quinazolin-4(3H)-one]
34 | Active | 255 to 256 °C | COc1cc(OC)c2c(=O)[nH]c(-c3cc(C)c(OCCO)c(C)c3)nc2n1 [Example 65, 2-(4-(2-hydroxyethoxy)-3,5-dimethylphenyl)-5,7-dimethoxypyrido[2,3-d]pyrimidin-4(3H)-one]
